pIC50: −log10 of the molar value.

These results are taken from ChEMBL document CHEMBL3865826, “Synthesis and biological evaluation of a series of non-hemiacetal ester derivatives of artemisinin” (Eur J Med Chem, 2016).

The nature of series [1]: Growth inhibition of human UACC62 cells measured after 24 hrs by SRB assay. It is filed as functional, cell-based. Conditions: UACC-62, 24 h.
In series [2] the test system is MCF7. The series can be described thus: Selectivity index, ratio of IC50 for human WI38 cells to IC50 for human MCF7 cells. It is filed as functional.
The nature of series [3]: Selectivity index, ratio of IC50 for human MCF7 cells to IC50 for chloroquine-resistant asexual erythrocyte stage form Plasmodium falciparum Dd2. The format is functional.
Series [4] relates to Plasmodium falciparum. The series can be described thus: Antiplasmodial activity against chloroquine-sensitive asexual erythrocyte stage form Plasmodium falciparum NF54 measured after 48 hrs by pLDH assay. It is filed as functional. Conditions: NF54, 48 h.
A short description of series [5]: Selectivity index, ratio of IC50 for CHO cells to IC50 for chloroquine-sensitive asexual erythrocyte stage form Plasmodium falciparum NF54. It is filed as toxicity, cell-based. Particulars: hamster, read-out: Ratio IC50.
Series [6] relates to CHO. In words: Selectivity index, ratio of IC50 for CHO cells to IC50 for human MCF7 cells. It is filed as functional.
Series [7] is described as follows: Growth inhibition of human TK10 cells measured after 24 hrs by SRB assay. It is filed as functional, cell-based. Conditions: TK-10, 24 h. Background: In SRB staining, fixed cells bind dye roughly in proportion to their protein.
For series [8], the system named is Plasmodium falciparum. In words: Antiplasmodial activity against chloroquine-resistant asexual erythrocyte stage form Plasmodium falciparum Dd2 measured after 48 hrs by pLDH assay. The format is functional. Particulars: Dd2, 48 h.
A short description of series [9]: Cytotoxicity against human WI38 cells assessed as reduction in cell viability measured after 48 hrs by SRB assay. It is filed as toxicity, cell-based, WI-38.
The nature of series [10]: Resistance index, ratio of IC50 for chloroquine-resistant asexual erythrocyte stage form Plasmodium falciparum Dd2 to IC50 for chloroquine-sensitive asexual erythrocyte stage form Plasmodium falciparum NF54. The format is functional.
Series [11] can be described thus: Cytotoxicity against CHO cells assessed as reduction in cell viability measured after 48 hrs by MTT assay. Conditions: Chinese hamster. It is filed as toxicity, cell-based, Cricetulus griseus.
A short description of series [12]: Growth inhibition of human MCF7 cells measured after 24 hrs by SRB assay. The format is functional, cell-based. Particulars: MCF7, 24 h.
Series [13] in a line: Selectivity index, ratio of IC50 for human WI38 cells to IC50 for chloroquine-sensitive asexual erythrocyte stage form Plasmodium falciparum NF54. It is filed as toxicity, cell-based, WI-38. Conditions: read-out: Ratio IC50.
Series [14] is described as follows: Selectivity index, ratio of IC50 for human TK10 cells to IC50 for chloroquine-resistant asexual erythrocyte stage form Plasmodium falciparum Dd2. It is filed as functional, TK-10.
Series [15] can be described thus: Thermal stability of the compound assessed as melting point by thermogravimetric analysis. It is filed as physicochemical.
For series [16], the system named is WI-38. In words: Selectivity index, ratio of IC50 for human WI38 cells to IC50 for human TK10 cells. The format is functional.
The nature of series [17]: Selectivity index, ratio of IC50 for human UACC62 cells to IC50 for chloroquine-resistant asexual erythrocyte stage form Plasmodium falciparum Dd2. The format is functional, UACC-62.
For series [18], the system named is UACC-62. The series can be described thus: Selectivity index, ratio of IC50 for human WI38 cells to IC50 for human UACC62 cells. The format is functional.
Series [19] in a line: Thermal stability of the compound assessed as onset of decomposition temperature by thermogravimetric analysis. It is filed as physicochemical.
Series [20] deals with CHO. In words: Selectivity index, ratio of IC50 for CHO cells to IC50 for human UACC62 cells. The format is functional.

`CCCCCC(=O)OCC1(C)O[C@@H]2O[C@]3(C)CC[C@H]4[C@H](C)CC[C@@H]1[C@@]24OO3` (stereo partly specified): the pIC50 in series [1] was less than 4.00; in series [4], 7.22; in series [7], less than 4.00; in [8], 7.36; in [12], 4.32. Moreover, the “Ratio IC50” value is listed as greater than 2 in series [2], 1100 in series [3], greater than 2 in series [6] and 0.7 in series [10]. Besides, the selectivity ratio in series [5] and in series [13] was greater than 1660 throughout. In addition, the IC50 at 48 h in series [9] and in [11] was greater than 100 µM throughout.

In the case of `C[C@@H]1CC[C@H]2C(C)(C=O)O[C@@H]3O[C@]4(C)CC[C@@H]1[C@]32OO4` (stereo partly specified), the pIC50 in [1] is 5.11; in [4], 8.16; in series [7], 4.44; in series [8], 8.39; in series [12] it was 5.19. In addition, the “Ratio IC50” value is 6 in series [2]; 8927 in series [14]; 1560 in [3]; greater than 3 in series [16]; 1900 in [17]; greater than 13 in [18]. In [10], the “Ratio IC50” value was 0.6. Also, the Tm in series [15] was 174.9 °C. Besides, the selectivity ratio in series [5] and in [13] was greater than 14500 each time. For the same compound, the IC50 at 48 h in series [9] and in series [11] was greater than 100 µM throughout.

As to `C[C@@H]1CC[C@H]2C(C)(CO)O[C@@H]3O[C@]4(C)CC[C@@H]1[C@]32OO4` (stereo partly specified), the negative-log IC50 (pIC50) in [1] was less than 4.00; in [4] it was 8.39; in series [7] it was less than 4.00; in series [8], 8.13; in series [12] it was less than 4.00. In addition, the Tm in series [15] worked out at 160.9 °C. For the same compound, the selectivity ratio in series [5] and in [13] was greater than 24400 each time. The IC50 at 48 h in series [9] and in [11] was greater than 100 µM each time. Also, the “Ratio IC50” value in [10] came out at 1.8. In series [19], the T was 144 °C.

With `CCCC(=O)OCC1(C)O[C@@H]2O[C@]3(C)CC[C@H]4[C@H](C)CC[C@@H]1[C@@]24OO3` (stereo partly specified), the negative logarithm of the IC50 (pIC50) in series [1] is less than 4.00; in [4], 7.77; in [7], less than 4.00; in [8], 8.16; in series [12], 4.27. Further, the “Ratio IC50” value in [2] was greater than 2; in series [3], 7768; in series [6], greater than 2; in series [10], 0.4. In addition, the selectivity ratio in series [5] and in series [13] was greater than 5920 throughout. In addition, the IC50 at 48 h in series [9] and in series [11] was greater than 100 µM in each case.

In the case of `C=C1C(=O)O[C@@H]2C3O[C@]3(C)CC/C=C(\C)CC[C@@H]12` (stereo partly specified), the pIC50 in [1] was 4.82; in series [7], 5.19; in series [12] it was 5.24.

`CC(=O)Oc1ccccc1C(=O)OCC1(C)O[C@@H]2O[C@]3(C)CC[C@H]4[C@H](C)CC[C@@H]1[C@@]24OO3` (stereo partly specified): the pIC50 in [1] was 4.72; in series [4], 8.57; in series [7] it was less than 4.00; in [8], 8.37; in [12], 4.98. Besides, the “Ratio IC50” value is greater than 10 in series [2]; 2442 in series [3]; 4419 in series [17]; greater than 10 in [6]; 1.6 in series [10]. Also, in series [15], the Tm turned out to be 175.2 °C. Further, the selectivity ratio in [5] and in series [13] was greater than 37000 each time. For the same compound, the IC50 at 48 h in series [9] and in [11] was greater than 100 µM throughout.

In the case of `C[C@H]1[C@H](OC(=O)CCC(=O)O)O[C@@H]2O[C@@]3(C)CC[C@H]4[C@H](C)CC[C@@H]1[C@@]24OO3` [ARTESUNATE], the Tm in series [15] worked out at 134.7 °C. Moreover, the values for the pIC50 in series [4] and in series [8] were 8.10 and 8.12, respectively. Further, the selectivity ratio in series [5] and in series [13] was greater than 12500 throughout. Moreover, the IC50 at 48 h in series [9] and in [11] was greater than 100 µM each time. In addition, in [10], the “Ratio IC50” value was found to be 0.9.

`CO[C@H]1O[C@@H]2O[C@@]3(C)CC[C@H]4[C@H](C)CC[C@@H]([C@H]1C)[C@@]24OO3` [ARTEMETHER]: the Tm in [15] was determined as 186 °C. Also, the pIC50 in series [4] was 8.42; in series [8] it was 8.64. The selectivity ratio in [5] is greater than 26300. Moreover, the “Ratio IC50” value in [10] amounted to 0.6. Further, the concentration for half-maximal inhibition (IC50) at 48 h in series [11] is greater than 100 µM.

As to `C[C@H]1[C@@H](O)O[C@@H]2O[C@@]3(C)CC[C@H]4[C@H](C)CC[C@@H]1[C@@]24OO3` [ARTENIMOL], in [15], the Tm was 160 °C. Also, the pIC50 is 8.66 in series [4] and 8.92 in series [8]. Also, the selectivity ratio in series [5] was greater than 45500. For the same compound, the “Ratio IC50” value in series [10] is 0.6. The 50% inhibitory concentration (IC50) at 48 h in series [11] is greater than 100 µM.

For the compound `C[C@@H]1CC[C@H]2C(C)(COC(=O)CCc3ccccc3)O[C@@H]3O[C@]4(C)CC[C@@H]1[C@]32OO4` (stereo partly specified), the pIC50 in series [1] was 4.16; in [4], 8.13; in [7], less than 4.00; in series [8] it was 7.94; in [12], 4.47. Further, the “Ratio IC50” value is greater than 3 in series [2]; 2974 in series [3]; greater than 1.4 in series [20]; 6026 in series [17]; greater than 3 in series [6]; greater than 1.4 in [18]. The “Ratio IC50” value in [10] worked out at 1.6. The selectivity ratio in series [5] and in series [13] was greater than 13500 in each case. For the same compound, the 50% inhibitory concentration (IC50) at 48 h in series [9] and in series [11] was greater than 100 µM in each case.

As for `C[C@@H]1CC[C@H]2C(C)(COC(=O)c3ccco3)O[C@@H]3O[C@]4(C)CC[C@@H]1[C@]32OO4` (stereo partly specified), the negative logarithm of the IC50 (pIC50) is less than 4.00 in series [1]; 8.04 in [4]; less than 4.00 in series [7]; 8.43 in series [8]; less than 4.00 in series [12]. In addition, in [15], the Tm was 177.3 °C. Besides, the selectivity ratio in series [5] and in [13] was greater than 10900 throughout. For the same compound, the concentration for half-maximal inhibition (IC50) at 48 h in series [9] and in series [11] was greater than 100 µM throughout. The “Ratio IC50” value in series [10] is listed as 0.4.

On to `CC[C@H]1CN2CCc3cc(OC)c(OC)cc3[C@@H]2C[C@@H]1C[C@H]1NCCc2cc(OC)c(OC)cc21` [EMETINE], for which the IC50 at 48 h came out at 0.05 µM in [9] and 0.29 µM in [11].

With `Cc1ccsc1C(=O)OCC1(C)O[C@@H]2O[C@]3(C)CC[C@H]4[C@H](C)CC[C@@H]1[C@@]24OO3` (stereo partly specified), the pIC50 in [1] is 4.86; in series [4] it was 8.14; in series [7] it was less than 4.00; in series [8] it was 8.15; in series [12], 5.17. In addition, the “Ratio IC50” value in [2] is given as greater than 15; in series [3] it was 958; in series [17], 1958; in series [6], greater than 15; in series [10], 1. Also, the selectivity ratio in series [5] and in series [13] was greater than 13900 throughout. Also, the concentration for half-maximal inhibition (IC50) at 48 h in series [9] and in [11] was greater than 100 µM each time.

As to `C[C@@H]1CC[C@H]2C(C)(COC(=O)c3cccs3)O[C@@H]3O[C@]4(C)CC[C@@H]1[C@]32OO4` (stereo partly specified), the negative-log IC50 (pIC50) in series [1] was 4.41; in series [4], 8.32; in series [7], less than 4.00; in [8], 8.23; in [12], 4.33. For the same compound, the “Ratio IC50” value in series [2] is listed as greater than 2; in [3], 7898; in [17], 6661; in [6] it was greater than 2; in series [10] it was 1.2. In series [15], the Tm was 170.8 °C. The selectivity ratio in [5] and in series [13] was greater than 20800 in each case. The IC50 at 48 h in series [9] and in series [11] was greater than 100 µM in each case.

Regarding `C[C@@H]1CC[C@H]2C(C)(COC(=O)c3cc4ccccc4o3)O[C@@H]3O[C@]4(C)CC[C@@H]1[C@]32OO4` (stereo partly specified), the pIC50 was 4.10 in series [1]; 7.84 in series [4]; less than 4.00 in series [7]; 8.15 in series [8]; 4.74 in series [12]. Besides, the “Ratio IC50” value in series [2] is given as greater than 6; in [3] it was 2563; in series [17], 11085; in series [6] it was greater than 6; in series [10] it was 0.5. For the same compound, the Tm in series [15] amounted to 172.1 °C. Besides, the selectivity ratio in series [5] and in series [13] was greater than 6850 each time. Further, the IC50 at 48 h in series [9] and in [11] was greater than 100 µM each time.

The term pIC50 denotes the negative decadic logarithm of the IC50, by convention in mol/L. In general, IC50 refers to the concentration needed to halve the response being measured.
